Measurements: patent publication US10188710B2, “Regulatory T cell epitope and hepatitis C virus homolog” (Rhode Island Council on Postsecondary Education, priority 2013, dated 2019)
“Also recorded” adds a separate entry of the source.

Assays:
Assay type in all cases: cell-based, human
[1] = system: PBMCs derived from HCV-infected (Ab+VL+) patients; assay: CD3+CD4+FoxP3+ cell induction in PBMC cultures from HCV-infected patients (flow cytometry); conditions: 10 μg/ml peptide, 5 days; for increase in CD3+CD4+FoxP3+ cells: PBMCs from Ab+VL+ patients, vs medium alone
Description: (§1) HCV-seropositive subjects with persistent viremia (Ab^+VL^+), patients who spontaneously resolved infection (Ab^+VL^−) and HCV-seronegative, non-infected (Ab^−VL^−) individuals were recruited from the Rhode Island Adult Corrections Institution (ACI) to participate in this study. Recruitment methods and the population are described elsewhere. The Institutional Review Boards of the Miriam Hospital, Rhode Island Department of Corrections and Office of Human Research Protection approved this study. All HCV infected subjects included in these analyses were infected with HCV genotype 1a or 1b (Versant HCV genotype assay 2, Siemens Healthcare Diagnostics Inc.). Hartford Hospital Transplantation Research Laboratory (Hartford, Conn.) and the Cellular Mediated Immunology Core Laboratory at the University of Rhode Island (Providence, R.I.) performed HLA typing.
Cryopreserved PBMCs were thawed; suspended in HEPES-buffered RPMI1640 medium supplemented with 10% HuAB serum (Valley Biomedical, Winchester, Va.), glutamine, 100 U/ml penicillin and 100 μg/ml streptomycin; and rested overnight at 37° C. in a humidified, CO2 incubator. On the following day, the PBMCs were centrifuged and resuspended in fresh medium containing 5% HuAB serum; 1×10^6 cells/nil were transferred to deep, flat-bottom, non-treated 48-well plates. The peptide sequence indicated in the text was added (10 μg/ml final concentration) and the cells were incubated for 5 days. PBMCs cultured in the presence of medium with 0.1% DMSO served as a negative control. Half the spent medium was replaced on day 3. The cells were collected for analysis on day 5.
The cells collected after 5 days incubation were quantified and characterized in accordance with methods we described previously. Dye-conjugated mouse monoclonal antibodies specific for the following determinants were purchased from BioLegend (San Diego, Calif.) and used: CD3, CD4 (clone OKT4), CD8a (clone HIT8a); CD39 (clone A1), and CD304 (clone 14H4); anti-human CD25 (clone M-A251) and anti-human FoxP3 (clone 236a) were purchased BD Biosciences (San Jose, Calif.). Data were collected on a 4 laser (13 color capability) BD LSRII Flow Cytometer (BD Biosciences, San Jose, Calif.) and analyzed using FlowJo software (Tree Star, Inc., Ashland, Oreg.). All analyses were conducted using the appropriate isotype controls to correct for non-specific staining PBMCs were cultured in the presence of medium alone, 10 μg/ml HCV_G1_p7_794, or 10 μg/ml HCV_G1_NS4b_1941.
The results were analyzed using the SigmaStat statistics program (Aspire Software International). Individual means were compared using a non-paired Student's t test or a Mann-Whitney Rank Sum test.
The cells were collected after 5 days incubation and analyzed by flow cytometry (FIGS. 1A-1C). The CD3+CD4+FoxP3+ cells were further characterized by the expression of CD25 and CD39 (FIG. 1B). The gating scheme and representative analyses are shown.

[2] = system: PBMCs derived from non-infected (Ab-VL-) individuals; assay: CD3+CD4+FoxP3+ cell induction in PBMC cultures from non-infected individuals (flow cytometry); conditions: 10 μg/ml peptide, 5 days
Description: as §1, with “typing. […]” for “typing.”
The cells collected after 5 days incubation were quantified and characterized in accordance with methods we described previously. […] Data were collected on a 4 laser (13 color capability) BD LSRII Flow Cytometer (BD Biosciences, San Jose, Calif.) and analyzed using FlowJo software (Tree Star, Inc., Ashland, Oreg.). […]
The results were analyzed using the SigmaStat statistics program (Aspire Software International). […]

[3] = system: CFSE-labeled Ab+VL+ PBMCs; assay: CFSE proliferation assay with or without anti-CD3
Description: For proliferation assays, cells rested overnight were labeled with carboxyfluorescein diacetate, succinimidyl ester (CFSE: Life Technologies Corporation, Carlsbad, Calif.) prior to culture in the presence or absence of 30 ng/ml anti-CD3 monoclonal antibody (clone HIT3a; BioLegend, San Diego, Calif.) and 10 μg/ml HCV_G1_p7_794. Cell proliferation was evaluated by flow cytometric analysis according to the protocol provided by Life Technologies in which a loss in fluorescence intensity correlates directly with the extent of replication.
The hallmark of CD3^+CD4^+FoxP3^+ Treg cells is suppressor activity. CSFE-labeled, Ab^+VL^+ PBMCs were cultured with medium alone or medium that contained 30 ng/ml anti-CD3, 10 μg/ml HCV_G1_p7_794 or a combination of anti-CD3 and HCV_G1_p7_794. After 5 days incubation, the cells were collected and proliferation the total (FIG. 3BA) and CD3^+CD4^+ (FIG. 3B) PBMC populations was estimated by flow cytometry. Data were obtained in a single experiment representative of the results obtained for PBMCs derived from six HCV-infected patients.

Row | Sequence | increase in CD3+CD4+FoxP3+ cells [1] | increase in CD3+CD4+FoxP3+ cells [2] | increase in CD3+CD4+FoxP3+ cells ([2]; vs medium alone) | effect on proliferative response to anti-CD3 monoclonal antibody ([3]; 30 ng/ml anti-CD3 plus 10 μg/ml peptide, 5 days, total or CD3+CD4+ population) | effect on proliferation of CD3+CD4+ T cells ([3]; 10 μg/ml peptide alone, no anti-CD3, 5 days) | CD25 and CD39 expression by induced CD3+CD4+FoxP3+ cells ([1]; Ab+VL+ PBMCs) | CD304 (neuropilin) expression by CD4+FoxP3+ cells ([1]; Ab+VL+ PBMCs)
1 | AARVTQILSSL TITQLLKRLHQWI [HCV_G1_NS4b_1941, reference compound] | failed to promote an increase | – | – | – | – | – | –
2 | PLLLLLLSLPPRA [Human p7_794] | significant increase | three | significant increase | – | – | – | –
3 | ISGIQYLAGLSTLPGNPA [HCV_G1_NS4b_1769, reference compound] | failed to elicit a CD3+CD4+FoxP3+ cell response | – | – | – | – | – | –
4 | WPLLLLLLALPQRAYAQ (Hepatitis C virus) [HCV_G1_p7_794] | marked increase | – | – | reproducible, albeit slight, decrease | no effect | expressed both CD25; also recorded: vast majority of these cells expressed CD39 | vast majority of CD4^+FoxP3^+ cells among Ab^+VL^+ PBMCs cultured in the presence of HCV_G1_p7_794 were CD304-negative; also recorded: only a minority
